One may read the EC50 as the concentration giving half of the maximal effect.

In this test the test system is M17—3TAU(P301L) cells. The test is described as follows: Neuroblastoma tauopathy model: inhibition of TAU-induced cytotoxicity (LDH). It is filed as cell-based. The following applies: Homo sapiens, 168 h; inhibition of TAU-induced toxicity (LDH), 7 days differentiation with retinoic acid. From the text:
A TAU expression plasmid was constructed by sub-cloning the cDNA encoding for human TAU-P301L protein, wherein proline at position 301 is substituted by a leucine residue, into mammalian expression vector pcDNA3.1 resulting in the plasmid pcDNA3.1-TAUP301L. Plasmids pcDNA3.1 and pcDNA3.1-TAU P301L were transfected into human neuroblastoma cells (BE-M17; ATCC No. CRL-2267™) using lipofectamine reagent and subsequently, independent clonal cell lines with the plasmids stably integrated into the genome were selected by antibiotic resistance selection (Geneticin (G418)), resulting in cell lines M17.pcDNA3 and M17—3TAUP301L. Expression of the TAUP301L gene in the M17—3TAUP301L cells was confirmed by Western blot analysis.
Differentiation of the cells with RA leads to phosphorylation and subsequent aggregation of TAU, inducing a tauopathy in these cells. Cytotoxicity of cells was measured by quantification of lactate dehydrogenase (LDH) levels. In dead cells LDH is leaked out of the cells into the medium due to a loss of plasma-membrane integrity.
Briefly, 3 days preceding the experiment pre-cultures of M17.pcDNA3 and M17—3TAU(P301L) cells were prepared, starting from a stock culture, at a density of 50.000-100.000 cells/cm2 in detection medium (Optimem Reduced Serum without phenol red (Gibco, Cat. 31985-047) supplemented with 1% fetal calf serum (FCS), 1 mM sodium pyruvate, 1× non-essential amino acids (NEAA), 500 μg/ml G418 and 0.5× antibiotic/antimycotic (ABAM)). At the day of the experiment these precultures were diluted to ˜0, 1.106 cells/ml in detection medium without FCS and 60 μL of this suspension is dispensed per well into a 96-well microtiter plate. After 3 hours of incubation at 37° C./5% CO2 an equal volume of detection medium containing 2.5 μM RA was added and subsequently incubated for 7 days at 37° C./5% CO2. After 7 days, LDH activity was determined using the Promega Cytotox 96 Non-Radioactive cytotoxicity assay (Cat. G1780), according the manufacturer's instructions. Cytotoxicity is measured as the ratio of LDH increase in the supernatant divided by the LDH increase in the total cell suspension (sum of the LDH measured in cells and supernatant).
The M17—3TAU(P301L) cell line makes it possible to assess the ability of novel compounds to inhibit TAU-induced cytotoxicity. […] Compounds were tested for their ability to hamper TAU-induced toxicity at different concentrations, ranging from low non-effective concentrations to high potent concentrations. Afterwards, the dose-dependent inhibition curve was used to calculate their EC50 (Table 1).

Turning to `Cc1ccccc1CN1CCN(c2nc(-c3cncc(Cl)c3)ns2)CC1` [Example 151, 1-[3-(5-Chloro-pyridin-3-yl)-[1,2,4]thiadiazol-5-yl]-4-(2-methyl-benzyl)-piperazine], the EC50 is 8.2 nM.
`COc1ccc(CCN2CCN(c3nc(-c4ccc(F)c(F)c4)ns3)CC2)cn1` [Example 105, 1-[3-(3,4-Difluoro-phenyl)-[1,2,4]thiadiazol-5-yl]-4-[2-(6-methoxy-pyridin-3-yl)-ethyl]-piperazine] yielded an EC50 of 2.1 nM.
The same measure for `COc1cc(CCN2CCN(c3nc(-c4ccc(Cl)cc4)ns3)CC2)ccn1` [Example 75, 1-[3-(4-Chloro-phenyl)-[1,2,4]thiadiazol-5-yl]-4-[2-(2-methoxy-pyridin-4-yl)-ethyl]-piperazine]: 13.4 nM; for `COc1ccc(CC(C)N2CCN(c3nc(-c4ccc(Cl)cc4)ns3)CC2)cc1` (stereo not shown) [Example 73, 1-[3-(4-Chloro-phenyl)-[1,2,4]thiadiazol-5-yl]-4-[2-(4-methoxy-phenyl)-1-methyl-ethyl]-piperazine]: 0.9 nM; for `COc1cccc(CCN2CCN(c3nc(-c4ccc(Cl)cc4)ns3)CC2)c1` [Example 14, 1-[3-(4-Chloro-phenyl)-[1,2,4]thiadiazol-5-yl]-4-[2-(3-methoxy-phenyl)-ethyl]-piperazine]: 4.8 nM.
Regarding `COc1ccc(CCN2CCN(c3nc(-c4ccc(Cl)cc4)ns3)CC2)cn1` [Example 79, 1-[3-(4-Chloro-phenyl)-[1,2,4]thiadiazol-5-yl]-4-[2-(6-methoxy-pyridin-3-yl)-ethyl]-piperazine], the EC50 was 2.8 nM.
Consider `N#Cc1cccc(-c2nsc(N3CCN(CCc4ccc(F)c(F)c4)CC3)n2)c1` [Example 137, 3-(5-{4-[2-(3,4-Difluoro-phenyl)-ethyl]-piperazin-1-yl}-[1,2,4]thiadiazol-3-yl)-benzonitrile], for which a half-maximal response (EC50) required 6.2 nM.
The same measure for `CC(C)Oc1cccc(CCN2CCN(c3nc(-c4ccc(Cl)cc4)ns3)CC2)c1` [Example 51, 1-[3-(4-Chloro-phenyl)-[1,2,4]thiadiazol-5-yl]-4-[2-(3-isopropoxy-phenyl)-ethyl]-piperazine]: 152 nM; for `FC(F)(F)c1cccc(CCN2CCN(c3nc(-c4cc(Cl)ccn4)ns3)CC2)c1` [Example 159, 3-(4-chloropyridin-2-yl)-5-(4-(3-(trifluoromethyl)phenethyl)piperazin-1-yl)-1,2,4-thiadiazole]: 119 nM; for `COc1ccc(CCN2CCN(c3nc(-c4ccccc4OC)ns3)CC2)cc1` [Example 45, 1-[2-(4-Methoxy-phenyl)-ethyl]-4-[3-(2-methoxy-phenyl)[1,2,4]thiadiazol-5-yl]-piperazine]: 0.7 nM.
The figure for `Clc1ccc(CCN2CCN(c3nc(-c4cccc(Cl)c4)ns3)CC2)cc1` [Example 87, 1-[2-(4-Chloro-phenyl)-ethyl]-4-[3-(3-chloro-phenyl)-[1,2,4]thiadiazol-5-yl]-piperazine] is 13.1 nM; for `COc1cccc(CCN2CCN(c3nc(-c4cccs4)ns3)CC2)c1` [Example 33, 1-[2-(3-Methoxy-phenyl)-ethyl]-4-(3-thiophen-2-yl-[1,2,4]thiadiazol-5-yl)-piperazine] it is 158 nM.
With `COc1ccc(CCN2CCN(c3nc(-c4ccc(C)cc4)ns3)CC2)cc1` [Example 19, 1-[2-(4-Methoxy-phenyl)-ethyl]-4-(3-p-tolyl-[1,2,4]thiadiazol-5-yl)-piperazine], the EC50 came to 2 nM.
The same measure for `Fc1ccc(CCN2CCN(c3nc(-c4cncc(Cl)c4)ns3)CC2)cc1F` [Example 160, 3-(5-chloropyridin-3-yl)-5-(4-(3,4-difluorophenethyl)piperazin-1-yl)-1,2,4-thiadiazole]: 0.4 nM.
The same measure for `Clc1ccc(-c2nsc(N3CCN(CCc4cccc(Cl)c4)CC3)n2)cc1` [Example 22, 1-[2-(3-Chloro-phenyl)-ethyl]-4-[3-(4-chloro-phenyl)-[1,2,4]thiadiazol-5-yl]-piperazine]: 4.2 nM; for `COc1cccc(CCN2CCN(c3nc(-c4cccc(OC)c4)ns3)CC2)c1` [Example 15, 1-[2-(3-Methoxy-phenyl)-ethyl]-4-[3-(3-methoxy-phenyl)-[1,2,4]thiadiazol-5-yl]-piperazine]: 21.4 nM; for `COc1cc(CCN2CCN(c3nc(-c4cncc(Cl)c4)ns3)CC2)ccn1` [Example 133, 1-[3-(5-Chloro-pyridin-3-yl)-[1,2,4]thiadiazol-5-yl]-4-[2-(2-methoxy-pyridin-4-yl)-ethyl]-piperazine]: 1.4 nM.
The same measure for `O=C(CN1CCN(c2nc(-c3ccc(Cl)cc3)ns2)CC1)c1cccc(F)c1` [Example 62, 2-{4-[3-(4-Chloro-phenyl)-[1,2,4]thiadiazol-5-yl]-piperazin-1-yl}-1-(3-fluoro-phenyl)-ethanone]: 68.7 nM; for `COc1ccc(CCN2CCN(c3nc(-c4ccc(Cl)cc4)ns3)CC2)cc1F` [Example 80, 1-[3-(4-Chloro-phenyl)-[1,2,4]thiadiazol-5-yl]-4-[2-(3-fluoro-4-methoxy-phenyl)-ethyl]-piperazine]: 2.7 nM.
Consider `COc1ccc(CCN2CCN(c3nc(-c4cccc(C#N)c4)ns3)CC2)cn1` [Example 115, 3-(5-{4-[2-(6-Methoxy-pyridin-3-yl)-ethyl]-piperazin-1-yl}-[1,2,4]thiadiazol-3-yl)-benzonitrile], for which the response was half-maximal at 2.3 nM (EC50).
As for `COc1cccc(C(F)CN2CCN(c3nc(-c4ccc(Cl)cc4)ns3)CC2)c1` (stereo not shown) [Example 65, 1-[3-(4-Chloro-phenyl)-[1,2,4]thiadiazol-5-yl]-4-[2-fluoro-2-(3-methoxy-phenyl)-ethyl]-piperazine], the EC50 amounted to 59.9 nM.
In the case of `Fc1ccc(CCN2CCN(c3nc(-c4ccc(F)c(F)c4)ns3)CC2)cc1F` [Example 136, 1-[2-(3,4-Difluoro-phenyl)-ethyl]-4-[3-(3,4-difluoro-phenyl)-[1,2,4]thiadiazol-5-yl]-piperazine], a half-maximal effect (EC50) was put at 6.2 nM.
As to `N#Cc1ccc(-c2nsc(N3CCN(CCc4cccc(C(F)(F)F)c4)CC3)n2)cc1` [Example 143, 4-(5-{4-[2-(3-Trifluoromethyl-phenyl)-ethyl]-piperazin-1-yl}-[1,2,4]thiadiazol-3-yl)-benzonitrile], the EC50 is 143 nM.
`COc1ccc(CCN2CCN(c3nc(-c4ccc(C#N)cc4)ns3)CC2)cc1` [Example 78, 4-(5-{4-[2-(4-Methoxy-phenyl)-ethyl]-piperazin-1-yl}-[1,2,4]thiadiazol-3-yl)-benzonitrile]: the EC50 was 2.1 nM.
For `COc1ccc(CCN2CCN(c3nc(-c4ccc(F)cc4OC)ns3)CC2)cc1` [Example 67, 1-[3-(4-Fluoro-2-methoxy-phenyl)-[1,2,4]thiadiazol-5-yl]-4-[2-(4-methoxy-phenyl)-ethyl]-piperazine], it took 1 nM to reach a half-maximal effect (EC50).
The figure for `Fc1ccc(CCN2CCN(c3nc(-c4cccc(Cl)c4)ns3)CC2)cc1` [Example 85, 1-[3-(3-Chloro-phenyl)-[1,2,4]thiadiazol-5-yl]-4-[2-(4-fluoro-phenyl)-ethyl]-piperazine] is 3.1 nM; for `N#Cc1ccc(-c2nsc(N3CCN(CCc4ccc(F)c(F)c4)CC3)n2)cc1` [Example 138, 4-(5-{4-[2-(3,4-Difluoro-phenyl)-ethyl]piperazin-1-yl}-[1,2,4]thiadiazol-3-yl)-benzonitrile] it is 18.2 nM; for `Fc1ccc(CCN2CCN(c3nc(-c4cc(Cl)ccn4)ns3)CC2)cc1` [Example 122, 1-[3-(4-Chloro-pyridin-2-yl)-[1,2,4]thiadiazol-5-yl]-4-[2-(4-fluoro-phenyl)-ethyl]-piperazine] it is 42.5 nM.
`Cc1ncc(-c2nsc(N3CCN(CCc4ccccc4)CC3)n2)cn1` [Example 178, 3-(2-methylpyrimidin-5-yl)-5-(4-phenethylpiperazin-1-yl)-1,2,4-thiadiazole] gave an EC50 of 13.2 nM.
On to `Fc1ccc(-c2nsc(N3CCN(CCc4ccc(C(F)(F)F)cc4)CC3)n2)cc1F` [Example 146, 1-[3-(3,4-Difluoro-phenyl)-[1,2,4]thiadiazol-5-yl]-4-[2-(4-trifluoromethyl-phenyl)-ethyl]-piperazine], for which the midpoint of the response, the EC50, lay at 60.1 nM.
For the compound `N#Cc1cccc(-c2nsc(N3CCN(CCc4ccccc4)CC3)n2)c1` [Example 109, 3-[5-(4-Phenethyl-piperazin-1-yl)-[1,2,4]thiadiazol-3-yl]-benzonitrile], the EC50 is 3 nM.

For the origin of these results see patent US9023852B2, “1, 2, 4-thiadiazol-5-ylpiperazine derivatives useful in the treatment of neurodegenerative diseases” (Remynd NV, priority 2011, dated 2015).
